This passage reports Papp results from ChEMBL document CHEMBL1149687, “Development of oligoarginine-drug conjugates linked to new peptidic self-cleavable spacers toward effective intestinal absorption” (Bioorg Med Chem Lett, 2007).

This test concerns Caco-2. The test is described as follows: Apparent permeability across Caco-2 cells. The settings on record: Homo sapiens. The class given is functional, cell-based.

For `CC(N)[C@@H](NC(=O)CCC(=O)OCCNC(=S)Nc1ccc(-c2c3ccc(=O)cc-3oc3cc(O)ccc23)c(C(=O)O)c1)C(=O)NCCCC(=O)N[C@H](CCCNC(=N)N)C(=O)N[C@H](CCCNC(=N)N)C(=O)N[C@H](CCCNC(=N)N)C(=O)N[C@H](CCCNC(=N)N)C(=O)N[C@H](CCCNC(=N)N)C(=O)N[C@H](CCCNC(=N)N)C(=O)N[C@H](CCCNC(=N)N)C(N)=O` (some centres undefined), the Papp came to 0.48 ×10⁻⁶ cm/s.

Turning to `C[C@@H](NC(=O)CCC(=O)OCCNC(=S)Nc1ccc(-c2c3ccc(=O)cc-3oc3cc(O)ccc23)c(C(=O)O)c1)C(=O)NCCCC(=O)N[C@H](CCCNC(=N)N)C(=O)N[C@H](CCCNC(=N)N)C(=O)N[C@H](CCCNC(=N)N)C(=O)N[C@H](CCCNC(=N)N)C(=O)N[C@H](CCCNC(=N)N)C(=O)N[C@H](CCCNC(=N)N)C(=O)N[C@H](CCCNC(=N)N)C(N)=O`, the Papp worked out at 0.41 ×10⁻⁶ cm/s. Consider `O=C(O)c1cc(NC(=S)NCCO)ccc1-c1c2ccc(=O)cc-2oc2cc(O)ccc12`, for which the Papp was 0.26 ×10⁻⁶ cm/s. Consider `N=C(N)NCCC[C@@H](NC(=O)[C@@H](CCCNC(=N)N)NC(=O)[C@@H](CCCNC(=N)N)NC(=O)[C@@H](CCCNC(=N)N)NC(=O)[C@@H](CCCNC(=N)N)NC(=O)[C@@H](CCCNC(=N)N)NC(=O)[C@@H](CCCNC(=N)N)NC(=O)CCCNC(=O)[C@@H](CN)NC(=O)CCC(=O)OCCNC(=S)Nc1ccc(-c2c3ccc(=O)cc-3oc3cc(O)ccc23)c(C(=O)O)c1)C(N)=O`, for which the Papp was 0.75 ×10⁻⁶ cm/s.
